Measured values from BindingDB's records for patent US20250188095 (Jiangsu Nhwa Pharmaceutical Co., 2025).

Target: T1, Orexin/Hypocretin receptor type 1 (Homo sapiens, UniProt O43613)
T1 sequence (O43613 whole entry): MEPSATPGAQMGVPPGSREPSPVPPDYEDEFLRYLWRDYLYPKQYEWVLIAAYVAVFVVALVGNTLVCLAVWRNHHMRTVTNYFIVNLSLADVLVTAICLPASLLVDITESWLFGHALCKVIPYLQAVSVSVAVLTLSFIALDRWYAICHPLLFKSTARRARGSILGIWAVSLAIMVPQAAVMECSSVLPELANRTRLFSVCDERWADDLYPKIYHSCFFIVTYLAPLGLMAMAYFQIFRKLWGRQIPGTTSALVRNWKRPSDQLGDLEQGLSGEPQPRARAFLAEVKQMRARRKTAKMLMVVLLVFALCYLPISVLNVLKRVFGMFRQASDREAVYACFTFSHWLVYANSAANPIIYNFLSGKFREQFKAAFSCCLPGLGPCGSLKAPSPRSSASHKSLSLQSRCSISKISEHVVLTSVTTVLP
Assay: In Vitro Activity Assay
Method: The cells were centrifuged at 1000 rpm for 5 min, and the supernatant was discarded. 3 mL of PBS was added, and the mixture was gently pipetted to be mixed well. The cells were centrifuged again at 1000 rpm for 5 min, and the supernatant was discarded.

IC50: > 1 µM
SMILES: Cc1cc(C)nc(N2C[C@H]3CN(C(=O)c4c(-c5ccsc5)cn5ccccc45)C[C@H]3C2)n1 [US20250188095, Example 17]
